Assay results: publication PMC8124269 (Molecules, 2021)
“Also recorded” adds a separate entry of the source. Like-named read-outs stand apart in the source and are kept apart here.

Tests used:
[1] = system: wild type N-NTD; parameters: method as in PMID 22272272; conditions: hexachlorofluorescein labeled ssRNA titrated with N-NTD; read-out: KD of RNA binding to N-NTD; cited from earlier work
[2] = system: N NTD oligomerization induced by 48-mer DNA; assay type: biochemical; conditions: for Oligomer Inhibition/Enhancement / Oligomer Size (hydrodynamic diameter Dh of DNA-NTD complex): NTD (60 µM) monomer, [compound] = 37.5 µM, [48-mer] = 29.4 µM; for Oligomer Size (hydrodynamic diameter Dh of DNA-NTD complex): 20 °C, without ligand 15.7 ± 0.7
[3] = system: SARS-CoV-2; test: microbe, parasite or virus in culture; assay type: cell-based; conditions: for effect on viral replication: infected Vero E6 cells, MOI 0.01, 48 and 72 hpi
[4] = system: COX; conditions: cited from earlier work; for COX Inhibition: which COX is inhibited, ref 11 (given for naproxen A and C0)
[5] = Cytotoxicity in Vero E6 cells; conditions: African green monkey
[6] = system: Influenza A virus; conditions: cited from earlier work
[7] = in vitro; conditions: African green monkey
[8] = molecular target: SARS-CoV-2 N-NTD (monomer) with labeled 10-mer RNA (Severe acute respiratory syndrome coronavirus 2, UniProt P0DTC9); test: biochemical; conditions: read-out: N Binding, Fluo Anisotropy (KD, displacement of RNA)
[9] = system: SARS-CoV-2 in nasal HAE; conditions: 90 µM or 300 µM, postinfection treatment, 48 hpi
[10] = system: viral 3C-like protease; conditions: cited from earlier work
[11] = system: SARS-CoV-2; parameters: method as in PMID 33441348; conditions: cited from earlier work
[12] = Vero E6, MOI 0.01, treatment 1 hpi

For “10-mer RNA: fluorescently labeled RNA UCUCUAAACG labeled with 5′-hexachlorofluorescein”, the Kd [1] is given as 8.3 ± 0.8 µM.

With `CC(=O)Nc1ccc(O)cc1` [Acetaminophen (paracetamol), Acetaminophen] the “Oligomer Inhibition/Enhancement” value [2] was “did not modify NTD oligomerization”, the “Oligomer Size (hydrodynamic diameter Dh of DNA-NTD complex)” value [2] was 14.0 ± 1.0 nm and the “Mean IC50 (viral replication)” value [3, 12] was “No inhibition”. For the same compound, the “effect on viral replication” value [3] was “No inhibition of viral replication; also recorded: mainly not affecting viral replication”, the “COX Inhibition” value [4] was “COX1 + COX2 ? ^1” and the CC50 [5] was over 400 µM. The CC50 at 48 h post infection [5] was over 400 µM and the CC50 at 72 h post infection [5] was over 400 µM.

In the case of `Cc1ccc(-c2cc(C(F)(F)F)nn2-c2ccc(S(N)(=O)=O)cc2)cc1` [Celecoxib], the “Oligomer Inhibition/Enhancement” value ([2]; listed as celecoxib) is reported as “enhanced the formation of large species”, the “Oligomer Size, large particles formed” value ([2]; compound in DMSO, compared to N + DMSO (12 nm)) is reported as “^7 Formation of large particles of 3 µm as compared to N + DMSO (12 nm)” and the “Mean IC50 (viral replication)” value [3, 12] is reported as “proviral”. For the same compound, the “effect on viral replication” value [3] was “No inhibition of viral replication; also recorded: did not present a clear antiviral effect”, the “COX Inhibition” value [4] was “COX2” and the CC50 [5] was 80 µM. For the same compound, the CC50 at 48 h post infection [5] was 83 µM.

For `COc1ccc2cc(C(CCC(=O)O)C(=O)O)ccc2c1` (stereo not drawn) [Naproxen A], the “Oligomer Size (hydrodynamic diameter Dh of DNA-NTD complex)” value [2] was 16.0 ± 0.8 nm, the “Mean IC50 (viral replication)” value [3, 12] was “No inhibition” and the “effect on viral replication” value [3] was “did not reduce viral replication”. The “ability to inhibit COX” value [4] was “lacked the ability to inhibit COX”, the “antiviral effect against Influenza A virus” value [6] was “no antiviral effect” and the CC50 [7] was over 1000 µM. It also gave a CC50 at 48 h post infection [7] of over 1000 µM and a CC50 at 72 h post infection [7] of over 1000 µM.

For `COc1ccc2cc(-c3c(C(=O)O)cccc3C(=O)O)ccc2c1` [Naproxen C0], the Kd [8] was 1.6 µM, the “Oligomer Size (hydrodynamic diameter Dh of DNA-NTD complex)” value [2] was 12.7 ± 0.7 nm and the IC50 ([3]; Severe acute respiratory syndrome coronavirus 2, Vero C1008, Vero E6, MOI 0.01, treatment 1 hpi, read-out: Mean IC50 (viral replication)) was 75 ± 25 µM. It also gave an IC50 ([3]; Severe acute respiratory syndrome coronavirus 2, Vero C1008, Vero E6, MOI 0.01, unique treatment at 1 hpi, 48 hpi, read-out: IC50) of 101 µM, an IC50 ([3]; Severe acute respiratory syndrome coronavirus 2, Vero C1008, Vero E6, MOI 0.01, unique treatment at 1 hpi, 72 hpi, read-out: IC50) of 45.1 µM and an IC50 ([3]; Vero E6, MOI 0.01, treatment 1 hpi, read-out: Mean IC50 (viral replication)) of 73 ± 25 µM. The “ability to inhibit COX” value [4] was “lacked the ability to inhibit COX”, the CC50 [7] was over 1000 µM and the CC50 at 48 h post infection [7] was over 1000 µM. The CC50 at 72 h post infection [7] was over 1000 µM.

In the case of `COc1ccc2cc([C@H](C)C(=O)O)ccc2c1` [Naproxen, naproxen], the “Oligomer Size (hydrodynamic diameter Dh of DNA-NTD complex)” value [2] is reported as 7.9 ± 0.3 nm, the IC50 ([3]; Severe acute respiratory syndrome coronavirus 2, Vero C1008, Vero E6, MOI 0.01, unique treatment at 1 hpi, 48 hpi) is reported as 46.1 µM and the IC50 ([3]; Severe acute respiratory syndrome coronavirus 2, Vero C1008, Vero E6, MOI 0.01, unique treatment at 1 hpi, 72 hpi) is reported as 59.5 µM. The IC50 ([3]; Severe acute respiratory syndrome coronavirus 2, Vero C1008, read-out: Mean IC50 (viral replication), Vero E6, MOI 0.01, treatment 1 hpi) was 50 ± 10 µM, the IC50 ([3]; read-out: Mean IC50 (viral replication), Vero E6, MOI 0.01, treatment 1 hpi) was 52 ± 6 µM and the “antiviral effect versus mock-treated control” value [9] was “did not show an antiviral effect”. The “COX Inhibition” value [4] was “COX1 + COX2”, the IC50 ([6]; MOI = 10^−2) was 25 ± 7 µM and the IC50 [10] was 3.45 µM.

For `CC(C)Cc1ccc(C(C)C(=O)O)cc1` (stereo not drawn) [ibuprofen], the “effect on SARS-CoV-2 entry or replication in vitro” value [11] is given as “did not affect SARS-CoV-2 entry or replication in vitro”.

In the case of `Cc1cnc(NC(=O)C2=C(O)c3ccccc3S(=O)(=O)N2C)s1` [meloxicam], the “effect on SARS-CoV-2 entry or replication in vitro” value [11] is given as “did not affect SARS-CoV-2 entry or replication in vitro”.
